# Data as given in PubChem BioAssay (NCI).
#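 A five-concentration, 48-hour dose response in 96-well plates underlies each endpoint, interpolated linearly between surrounding concentrations. GI50: concentration for 50% inhibition of growth. The concentration for full growth arrest is given as TGI.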
# Tests used:
# Assay in all cases: NCI anticancer screen, dose series, 48 h
# [1] = tested on: NCI-H23 lung
# [2] = tested on: SW-620 colon
# [3] = tested on: T-47D breast
# [4] = tested on: OVCAR-4 ovarian
# [5] = tested on: SK-MEL-5 melanoma
# [6] = tested on: MALME-3M melanoma
# [7] = tested on: CAKI-1 renal
# [8] = tested on: NCI-H522 lung
# [9] = tested on: SF-539 CNS
# [10] = tested on: PC-3 prostate
# [11] = tested on: HT29 colon
# [12] = tested on: KM12 colon
# [13] = tested on: TK-10 renal
# [14] = tested on: NCI/ADR-RES ovarian
# [15] = tested on: SK-MEL-28 melanoma
# [16] = tested on: HS 578T breast
# [17] = tested on: MDA-MB-231 breast
# [18] = tested on: 786-0 renal
# [19] = tested on: EKVX NSCLC
# [20] = tested on: K-562 leukemia
# [21] = tested on: SNB-19 CNS
# [22] = tested on: HCC-2998 colon
# [23] = tested on: SN12C renal
# [24] = tested on: SF-268 CNS
# [25] = tested on: HOP-62 NSCLC
# [26] = tested on: HOP-92 NSCLC
# [27] = tested on: A549 NSCLC
# [28] = tested on: M14 melanoma
# [29] = tested on: SR leukemia
# [30] = tested on: BT-549 breast
# [31] = tested on: NCI-H460 lung
# [32] = tested on: COLO 205 colon
# [33] = tested on: RPMI-8226 leukemia
# [34] = tested on: HCT-116 colon
# [35] = tested on: UO-31 renal
# [36] = tested on: OVCAR-5 ovarian
# [37] = tested on: MCF7 breast
# [38] = tested on: IGROV1 ovarian
# [39] = tested on: MOLT-4 leukemia
# [40] = tested on: ACHN renal
# [41] = tested on: RXF 393 renal
# [42] = tested on: A498 renal
# [43] = tested on: HCT-15 colon
# [44] = tested on: SF-295 CNS
# [45] = tested on: SK-OV-3 ovarian
# [46] = tested on: CCRF-CEM leukemia
# [47] = tested on: UACC-257 melanoma
# [48] = tested on: OVCAR-8 ovarian
# [49] = tested on: DU-145 prostate
# [50] = tested on: SNB-75 CNS
# [51] = tested on: MDA-MB-435
# [52] = tested on: SK-MEL-2 melanoma
# [53] = tested on: UACC-62 melanoma
# [54] = tested on: NCI-H226 lung
# [55] = tested on: HL-60(TB) leukemia
# [56] = tested on: U251 CNS
# [57] = tested on: OVCAR-3 ovarian
# [58] = tested on: LOX IMVI melanoma
structure (smiles),measurement,setting,value
Cn1ccnc1C(=O)/C=C/C=C/c1ccc(C(=O)Nc2ccc(F)cc2)cc1,GI50,[1],1040 nM
same,TGI,[1],4460 nM
same,GI50,[2],796 nM
same,TGI,[2],2040 nM
same,GI50,[3],2010 nM
same,TGI,[3],> 33300 nM
same,GI50,[4],6060 nM
same,TGI,[4],> 33300 nM
same,GI50,[5],2650 nM
same,TGI,[5],12000 nM
same,GI50,[6],1290 nM
same,TGI,[6],6580 nM
same,GI50,[7],3220 nM
same,TGI,[7],> 33300 nM
same,GI50,[8],1640 nM
same,TGI,[8],16800 nM
same,GI50,[9],858 nM
same,TGI,[9],2440 nM
same,GI50,[10],1260 nM
same,TGI,[10],> 33300 nM
same,GI50,[11],890 nM
same,TGI,[11],2490 nM
same,GI50,[12],6790 nM
same,TGI,[12],> 33300 nM
same,GI50,[13],27700 nM
same,TGI,[13],> 33300 nM
same,GI50,[14],2020 nM
same,TGI,[14],> 33300 nM
same,GI50,[15],2410 nM
same,TGI,[15],> 33300 nM
same,GI50,[16],2270 nM
same,TGI,[16],> 33300 nM
same,GI50,[17],1410 nM
same,TGI,[17],> 33300 nM
same,GI50,[18],778 nM
same,TGI,[18],1880 nM
same,GI50,[19],1260 nM
same,TGI,[19],12100 nM
same,GI50,[20],828 nM
same,TGI,[20],> 33300 nM
same,GI50,[21],2050 nM
same,TGI,[21],> 33300 nM
same,GI50,[22],2610 nM
same,TGI,[22],8770 nM
same,GI50,[23],1540 nM
same,TGI,[23],14200 nM
same,GI50,[24],1540 nM
same,TGI,[24],> 33300 nM
same,GI50,[25],8470 nM
same,TGI,[25],> 33300 nM
same,GI50,[26],3140 nM
same,TGI,[26],20500 nM
same,GI50,[27],5360 nM
same,TGI,[27],> 33300 nM
same,GI50,[28],1930 nM
same,TGI,[28],28700 nM
same,GI50,[29],468 nM
same,TGI,[29],> 33300 nM
same,GI50,[30],1320 nM
same,TGI,[30],15100 nM
same,GI50,[31],1940 nM
same,TGI,[31],10600 nM
same,GI50,[32],5610 nM
same,TGI,[32],> 33300 nM
same,GI50,[33],699 nM
same,TGI,[33],2270 nM
same,GI50,[34],666 nM
same,TGI,[34],1570 nM
same,GI50,[35],1420 nM
same,TGI,[35],7160 nM
same,GI50,[36],1730 nM
same,TGI,[36],16800 nM
same,GI50,[37],917 nM
same,TGI,[37],> 33300 nM
same,GI50,[38],846 nM
same,TGI,[38],2610 nM
same,GI50,[39],1020 nM
same,TGI,[39],> 33300 nM
same,GI50,[40],1150 nM
same,TGI,[40],5540 nM
same,GI50,[41],711 nM
same,TGI,[41],1920 nM
same,GI50,[42],2600 nM
same,TGI,[42],26900 nM
same,GI50,[43],568 nM
same,TGI,[43],1250 nM
same,GI50,[44],9490 nM
same,TGI,[44],> 33300 nM
same,GI50,[45],11000 nM
same,TGI,[45],> 33300 nM
same,GI50,[46],731 nM
same,TGI,[46],> 33300 nM
same,GI50,[47],14100 nM
same,TGI,[47],> 33300 nM
same,GI50,[48],1200 nM
same,TGI,[48],> 33300 nM
same,GI50,[49],1520 nM
same,TGI,[49],> 33300 nM
same,GI50,[50],1180 nM
same,TGI,[50],29300 nM
same,GI50,[51],1070 nM
same,TGI,[51],4450 nM
same,GI50,[52],17900 nM
same,TGI,[52],> 33300 nM
same,GI50,[53],3480 nM
same,TGI,[53],15400 nM
same,GI50,[54],2180 nM
same,TGI,[54],12800 nM
same,GI50,[55],956 nM
same,TGI,[55],7200 nM
same,GI50,[56],911 nM
same,TGI,[56],8200 nM
COc1ccc2c(c1)c(/C=N/Nc1ccnc3cc(Cl)ccc13)cn2C,GI50,[1],214 nM
same,TGI,[1],556 nM
same,GI50,[2],185 nM
same,TGI,[2],360 nM
same,GI50,[3],227 nM
same,TGI,[3],599 nM
same,GI50,[4],681 nM
same,TGI,[4],1700 nM
same,GI50,[5],1640 nM
same,TGI,[5],3180 nM
same,GI50,[6],1470 nM
same,TGI,[6],3270 nM
same,GI50,[7],1490 nM
same,TGI,[7],2890 nM
same,GI50,[8],563 nM
same,TGI,[8],1280 nM
same,GI50,[9],612 nM
same,TGI,[9],1250 nM
same,GI50,[10],517 nM
same,TGI,[10],1290 nM
same,GI50,[11],176 nM
same,TGI,[11],325 nM
same,GI50,[12],194 nM
same,TGI,[12],384 nM
same,GI50,[13],1240 nM
same,TGI,[13],2780 nM
same,GI50,[14],600 nM
same,TGI,[14],1480 nM
same,GI50,[15],1840 nM
same,TGI,[15],3460 nM
same,GI50,[16],1810 nM
same,TGI,[16],3880 nM
same,GI50,[17],203 nM
same,TGI,[17],444 nM
same,GI50,[18],175 nM
same,TGI,[18],317 nM
same,GI50,[19],1510 nM
same,TGI,[19],3190 nM
same,GI50,[20],193 nM
same,TGI,[20],382 nM
same,GI50,[21],648 nM
same,TGI,[21],2090 nM
same,GI50,[22],369 nM
same,TGI,[22],1190 nM
same,GI50,[23],439 nM
same,TGI,[23],961 nM
same,GI50,[24],1660 nM
same,TGI,[24],3460 nM
same,GI50,[25],1450 nM
same,TGI,[25],3300 nM
same,GI50,[26],823 nM
same,TGI,[26],2490 nM
same,GI50,[27],181 nM
same,TGI,[27],347 nM
same,GI50,[28],992 nM
same,TGI,[28],2600 nM
same,GI50,[29],143 nM
same,TGI,[29],521 nM
same,GI50,[30],1890 nM
same,TGI,[30],3540 nM
same,GI50,[31],193 nM
same,TGI,[31],357 nM
same,GI50,[32],578 nM
same,TGI,[32],1800 nM
same,GI50,[33],233 nM
same,TGI,[33],565 nM
same,GI50,[34],176 nM
same,TGI,[34],324 nM
same,GI50,[35],1390 nM
same,TGI,[35],2850 nM
same,GI50,[36],609 nM
same,TGI,[36],1190 nM
same,GI50,[37],164 nM
same,TGI,[37],327 nM
same,GI50,[38],176 nM
same,TGI,[38],345 nM
same,GI50,[39],215 nM
same,TGI,[39],478 nM
same,GI50,[40],683 nM
same,TGI,[40],1560 nM
same,GI50,[41],1260 nM
same,TGI,[41],2900 nM
same,GI50,[57],1180 nM
same,TGI,[57],2440 nM
same,GI50,[42],1830 nM
same,TGI,[42],3470 nM
same,GI50,[43],200 nM
same,TGI,[43],410 nM
same,GI50,[44],1110 nM
same,TGI,[44],3150 nM
same,GI50,[45],1570 nM
same,TGI,[45],3140 nM
same,GI50,[46],234 nM
same,TGI,[46],589 nM
same,GI50,[47],1780 nM
same,TGI,[47],3660 nM
same,GI50,[48],202 nM
same,TGI,[48],440 nM
same,GI50,[49],192 nM
same,TGI,[49],349 nM
same,GI50,[50],1320 nM
same,TGI,[50],2800 nM
same,GI50,[51],186 nM
same,TGI,[51],354 nM
same,GI50,[52],1700 nM
same,TGI,[52],3280 nM
same,GI50,[53],1730 nM
same,TGI,[53],3520 nM
same,GI50,[58],183 nM
same,TGI,[58],352 nM
same,GI50,[54],1820 nM
same,TGI,[54],4310 nM
same,GI50,[55],231 nM
same,TGI,[55],533 nM
same,GI50,[56],173 nM
same,TGI,[56],322 nM
